According to patent publication US7956072B2, “Agent for repairing corneal sensitivity containing amide compound” (Senju Pharmaceutical Co., Ltd., priority 2004, dated 2011):
Entries after “also recorded” stand apart in the source; their conditions may differ.

Assays:
[1] = test system: rabbit corneal hyposensitivity model; assay: Improving effect on rabbit corneal hyposensitivity using microkeratome (corneal flap model, Cochet-Bonnet corneal sensitivity meter); assay type: in vivo; settings: 0.01% instillation; for recovery of corneal sensitivity relative to control group: 50 μL 4 times a day for 1 week or 2 weeks after corneal flap preparation, measured weekly 1 to 8 weeks postsurgery, hydrochloride
Protocol: Japanese white rabbits (body weight 2.5-3.0 kg) purchased from Japan SLC were used. The animals were housed separately in cages in a room set to room temperature 23±3° C., humidity 55±10%, 12 hr light cycle (light on 8 am, light off on 8 pm) from arrival to the end of the test. A limited amount of a solid feed (Labo R-stock, Nosan Corporation, 100 g for one day) was given to the animals and a free access to tap water was allowed.
As the test substance, compound 1 was used. Compound 1 was dissolved in the following base solution to 0.01% and administered by instillation. The base solution was administered to the control group by instillation.
Prior to the start of the test, the anterior segment of eye of the animal was visually observed and cornea stained marks by fluorescein was observed, and the rabbits showing no abnormality in them were selected. Using Cochet-Bonnet corneal sensitivity meter (manufactured by LUNEAU), the initial value of corneal sensitivity was measured.
Intramuscular injection (0.9 mL/kg) of a Celactal (2% xylazine):Ketalar (5% ketamine)=0.5:1 mixture was given to the animals to perform systemic anesthesia, and the eyeball was sufficiently exposed. Using microkeratome (MK2000, Nidek) attached a rabbit eye adaptor inside a suction ring, a corneal flap (diameter 8.5 mm) was prepared with a 130 μm thick blade (Arbelaez M C. et al., J. Refract Surg., 2002 May-Jun. 18 (3 Suppl): S357-60). The corneal flap was certainly put back into position under a microscope, and the animal was woken up from the anesthesia while observing the animal to prevent displacement of the flap. […]
The corneal sensitivity was measured using a Cochet-Bonnet corneal sensitivity meter once every week from one to eight weeks after the surgery. […]
For statistical analysis, a parametric Dunnett multiple comparisons test (one sided) (SAS preclinical package; Version 5.0, SAS Institute Japan) was used and a risk of less than 5% was evaluated as significant.

[2] = test system: cultured rabbit trigeminal nerve cells; assay: Promoting effect on neuritogenesis in cultured rabbit trigeminal nerve cell; assay type: cell-based; settings: compound 1 final concentration 1 μM, 48 hr of culture
From the text: Japanese White rabbits (2-3 days old) purchased from KITAYAMA LABES Co., Ltd. were used.
The trigeminal nerve cell was isolated according to the report of Chan et al. (Chan, Kuan Y. and Haschke, Richard H., Exp. Eye Res., 41: 687-699, 1985). To be specific, under ether anesthesia, after cardiac perfusion with saline, the trigeminal ganglia was removed, dispersed using a nerve dispersion solution (SUMITOMO BAKELITE Co., Ltd.) to give a cell suspension. […]
After 48 hr of culture, the cells were fixed with 4% paraformaldehyde at room temperature for 2 hr, and nerve cell body and neurite were fluorescence stained using an anti-neurofilament 200 antibody (Sigma) that specifically recognizes neurofilaments which are intermediate filaments specific to a nerve cell and a fluorescent secondary antibody reactive therewith.
The stained cells were imported as images from a fluorescence microscope into a computer and the cell body diameter and neurite length of the imported cell images were measured using an image analysis software (Image-Pro Plus ver. 4.0, Planetron. Inc.). The cells of 3 wells were measured for each of the compound 1 addition group and the control group. The cells having a neurite with a length of not less than twice the diameter of a cell body were taken as neuritogenetic cells, and the percentage (%) of the neuritogenetic cells in the total cells measured was calculated.

`C[C@@H](N)c1ccc(C(=O)Nc2ccnc3[nH]ccc23)cc1.Cl` [compound 1, (R)-(+)-N-(1H-pyrrolo[2,3-b]pyridin-4-yl)-4-(1-aminoethyl)benzamide 1 hydrochloride] was tested, and the “corneal sensitivity compared to control group (statistical analysis)” value ([1]; 1-week administration group, at 5 week postsurgery, Dunnett test, p<0.05) was “significantly high”, the “recovery of corneal sensitivity relative to control group” value [1] was “has an effect of promoting the recovery of corneal hyposensitivity” and the “recovery of corneal sensitivity relative to control group” value ([1]; listed as test substance) was “better recovery of corneal sensitivity than in the control group”. The “neuritogenesis of cultured trigeminal nerve cells (fluorescence microscope observation)” value ([2]; anti-neurofilament 200 staining, hydrochloride) was “many cells having a long-extended neurite were observed; also recorded: promotes neuritogenesis” and the “percentage (%) of the neuritogenetic cells in the total cells measured” value ([2]; N=3, mean, control group 24%, p<0.001 vs control) was 54.6%.
